Data from patent US9073853B2, “Cycloalkane carboxylic acid derivatives as CXCR3 receptor antagonists” (Sanofi, priority 2011, dated 2015).

Each molecule was assayed against human CXCR3-A receptor (Homo sapiens (Human), UniProt P49682) (assay: 125I-CXCL10 competition radioligand binding assay). Conditions: displacement of 125I-CXCL10 from membranes of CHO cells expressing human recombinant CXCR3-A.
Description: IC50 values were determined for the test compounds and used to explore the structure-activity relationships (SAR). […] This cell line was registered in Sanofi-Aventis cell line bank. […] Cell suspension was diluted with PBS and cells were collected with centrifugation at 230 g for 10 minutes at 10° C. with a Juan centrifuge. […] The supernatant was carefully collected and centrifuged at 100,000×g for 60 min at 4° with a Beckman Avanti J30 centrifuge. […] Protein concentration was determined with Bio-Rad protein assay (Cat No 500-0006). Membrane aliquots were stored at -80° C. […] The composition of the binding assay buffer was determined in a course of detailed optimization procedure. […] Binding reaction was initiated by adding of membranes (10-20 μg proteins, approximately 5×10^5 cell equivalents) to the reaction mixture. After 60 minutes of incubation at 25° C. the reaction was terminated by rapid filtration over GF/B glass fiber filters that were pre-soaked with 0.5% polyethyleneimine (Fluka Analytical, P3143) for 1 hour, using a Skatron cell harvester device. Filters then were washed with 8 ml of ice-cold wash buffer (modified binding buffer in which BSA was omitted and the concentration of NaCl was adjusted to 500 mM concentration). The radioactivity retained on the filters was measured by a Wizard 1470 Automatic Gamma counter. Test compounds were dissolved prior to the binding assay at a concentration of 10 mM in DMSO. Stock solutions were stored at -20° C. for not longer than 3 months. […] Before adding these solutions of test compound to the binding reaction mixture, an intermediate dilution procedure was applied, in which 30 μL of each solution sample was transferred into a dilution tube containing 970 μL of binding assay buffer. […] The IC50 values and Hill slopes for competition binding data were obtained using nonlinear four-parametric curve fitting method.

human CXCR3-A receptor, sequence (P49682 whole entry): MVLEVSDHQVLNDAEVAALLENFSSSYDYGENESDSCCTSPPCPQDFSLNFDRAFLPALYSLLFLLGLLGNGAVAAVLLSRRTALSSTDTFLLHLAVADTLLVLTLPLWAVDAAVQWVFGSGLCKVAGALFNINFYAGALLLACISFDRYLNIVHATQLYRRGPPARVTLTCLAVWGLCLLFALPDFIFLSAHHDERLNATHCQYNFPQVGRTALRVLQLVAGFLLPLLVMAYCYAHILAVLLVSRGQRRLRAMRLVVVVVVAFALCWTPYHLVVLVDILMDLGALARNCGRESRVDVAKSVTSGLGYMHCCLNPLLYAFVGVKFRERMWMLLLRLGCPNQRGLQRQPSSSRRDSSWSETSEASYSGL

Structure (SMILES) | IC50 [nM]
COc1cc(CN(C[C@H]2CC[C@H](C(=O)O)CC2)C2CCc3cc(Cl)ccc32)ccc1OCCN1C(=O)CN(C)C1=O (stereo partly drawn) [Example 52, trans-4-[((5-Chloro-indan-1-yl)-{3-methoxy-4-[2-(3-methyl-2,5-dioxo-imidazolidin-1-yl)-ethoxy]-benzyl}-amino)-methyl]-cyclohexanecarboxylic acid] | 177
COc1cc(CN(C[C@H]2CC[C@H](C(=O)O)CC2)[C@@H](C)c2ccc(Cl)cc2)ccc1OCCN1C(=O)CN(C)C1=O [Example 53, trans-4-[([(S)-1-(4-Chloro-phenyl)-ethyl]-{3-methoxy-4-[2-(3-methyl-2,5-dioxo-imidazolidin-1-yl)-ethoxy]-benzyl}-amino)-methyl]-cyclohexanecarboxylic acid] | 789
Cc1cc(CN(C[C@H]2CC[C@H](C(=O)O)CC2)[C@@H](C)c2ccc(Cl)cc2)ccc1CCCN1C(=O)CCC1=O [Example 54, trans-4-[([(S)-1-(4-Chloro-phenyl)-ethyl]-{4-[3-(2,5-dioxo-pyrrolidin-1-yl)-propyl]-3-methyl-benzyl}-amino)-methyl]-cyclohexanecarboxylic acid] | 482
COc1cc(CN(C[C@H]2CC[C@H](C(=O)O)CC2)[C@@H](C)c2ccc(Cl)cc2)ccc1C#CCN1C(=O)CCC1=O [Example 55, trans-4-[([(S)-1-(4-Chloro-phenyl)-ethyl]-{4-[3-(2,5-dioxo-pyrrolidin-1-yl)-prop-1-ynyl]-3-methoxy-benzyl}-amino)-methyl]-cyclohexanecarboxylic acid] | 6600
COc1cc(CN(C[C@H]2CC[C@H](C(=O)O)CC2)[C@@H](C)c2ccc(Cl)cc2)ccc1CCCN1C(=O)CCC1=O [Example 56, trans-4-[([(S)-1-(4-Chloro-phenyl)-ethyl]-{4-[3-(2,5-dioxo-pyrrolidin-1-yl)-propyl]-3-methoxy-benzyl}-amino)-methyl]-cyclohexanecarboxylic acid] | 215
Cc1cc(CN(C[C@H]2CC[C@H](C(=O)O)CC2)C2CCc3cc(Cl)ccc32)ccc1OCCN1C(=O)CN(C)C1=O (stereo partly drawn) [Example 57, trans-4-[((5-Chloro-indan-1-yl)-{3-methyl-4-[2-(3-methyl-2,5-dioxo-imidazolidin-1-yl)-ethoxy]-benzyl}-amino)-methyl]-cyclohexanecarboxylic acid] | 200
Cc1cc(CN(C[C@H]2CC[C@H](C(=O)O)CC2)[C@@H](C)c2ccc(Cl)cc2)ccc1OCCn1c(=O)ccn(C)c1=O [Example 58, trans-4-[([(S)-1-(4-Chloro-phenyl)-ethyl]-{3-methyl-4-[2-(3-methyl-2,6-dioxo-3,6-dihydro-2H-pyrimidin-1-yl)-ethoxy]-benzyl}-amino)-methyl]-cyclohexanecarboxylic acid] | 169
COc1cc(CN(C[C@H]2CC[C@H](C(=O)O)CC2)C(C)c2ccc3c(c2)CCO3)ccc1OCCn1c(=O)ccn(C)c1=O (stereo partly drawn) [Example 59, trans-4-[([1-(2,3-Dihydro-benzofuran-5-yl)-ethyl]-{3-methoxy-4-[2-(3-methyl-2,6-dioxo-3,6-dihydro-2H-pyrimidin-1-yl)-ethoxy]-benzyl}-amino)-methyl]-cyclohexanecarboxylic acid] | 195
Cc1cc(CN(C[C@H]2CC[C@H](C(=O)O)CC2)C(C)c2ccc3c(c2)CCO3)ccc1OCCn1c(=O)ccn(C)c1=O (stereo partly drawn) [Example 60, trans-4-[([1-(2,3-Dihydro-benzofuran-5-yl)-ethyl]-{3-methyl-4-[2-(3-methyl-2,6-dioxo-3,6-dihydro-2H-pyrimidin-1-yl)-ethoxy]-benzyl}-amino)-methyl]-cyclohexanecarboxylic acid] | 345
Cc1cc(CN(C[C@H]2CC[C@H](C(=O)O)CC2)C(C)c2ccc(C#N)cc2)ccc1OCCN1C(=O)CCC1=O (stereo partly drawn) [Example 61, trans-4-[([1-(4-Cyano-phenyl)-ethyl]-{4-[2-(2,5-dioxo-pyrrolidin-1-yl)-ethoxy]-3-methyl-benzyl}-amino)-methyl]-cyclohexanecarboxylic acid] | 102
